Measured values taken from patent US20150083906A1, “BIOMARKERS FOR MONITORING INTERVENTION THERAPIES FOR DIABETES” (MERCK SHARP & DOHME CORP., priority 2012, published 2015).
“Also recorded” adds a separate entry of the source.

Tests used:
[1] = tested on: db/db mice; test: Study 1: plasma N-glycan profile (GLYCANMAP, MALDI-TOF MS) and HbA1c in rosiglitazone-treated db/db mice; format: in vivo; details: 10 mpk oral once daily, vs vehicle
Source text: An initial study (Study 1) was an analysis of 160 plasma samples collected from rosiglitazone-treated mice following oral administration of 10 mpk once daily for up to 39 days. Rosigilitazone is an athiazolidinedione class of antidiabetic drug marketed by Glaxo under the trade name AVANDIA. […] These changes, on an individual N-glycan basis, reached high statistical significance (P<0.001) as early as seven days, a full two weeks prior to changes in HbA1c (day seven vs. day 21, respectively). […]
The objective of Study 1 was to evaluate N-linked glycosylation changes in plasma proteins that precede and predict the decrease in glycated hemoglobin (HbA1c) associated with successful resolution of diabetes. […] A baseline (Day 0) sample was not analyzed in the initial rosiglitazone study, but was included in the subsequent studies described in Examples 2 and 3.
GLYCANMAP Assay (a registered trademark of Ezose Sciences, Pine Brook, N.J.): A 10 μL aliquot of each plasma sample was spiked with internal standard (700 pmol) to aid in quantitation. The spiked aliquots were analyzed for N-linked glycans using GLYCANMAP methodology, which is based on the methods previously reported by Nishimura, Furukawa and Miura (Nishimura et al., Angew Chem. Int. Ed. Engl., 44: 91-96 (2004); Furukawa et al., Anal. Chem., 80: 1094-1101 (2008); Miura et al., Chem.-A Eur. J, 13: 4797-4804 (2007)). […]

[2] = tested on: db/db mice; test: Study 3: plasma N-glycan profile in insulin detemir-treated db/db mice; format: in vivo; details: for Direction of Change, High Mannose glycan 520000 (Man5GlcNAc2) / Direction of Change, High Mannose glycan 620000 (Man6GlcNAc2) / Direction of Change, High Mannose glycan 720000 (Man7GlcNAc2) / Direction of Change, High Mannose glycan 820000 (Man8GlcNAc2) / Direction of Change, Hybrid glycan 430010 / Direction of Change, Hybrid glycan 530010 / Direction of Change, Hybrid glycan 630010: subcutaneous, two doses of 10 U/kg per day, days 7, 14, 21, vs vehicle
Method: In Study 3, changes in the N-linked glycosylation profile of total serum proteins obtained from diabetic mice were further characterized using a different drug-treatment to determine the drug specificity of the rosiglitazone-induced changes. In an animal study, insulin detemir was administered subcutaneously in two doses of 10 U/kg per day. Samples were collected from insulin detemir and vehicle-treated db/db mice at four time points (0, 7, 14, and 21 days). (Insulin detemir is a long-acting insulin marketed by Novo Nordisk under the trade name LEVEMIR.). […] The high mannose N-glycans that were decreased in the insulin-treated db/db mice were Man8GlcNAc2 (820000), Man7GlcNAc2 (720000), Man6GlcNAc2 (620000), and Man5GlcNAc2 (520000). The hybrid N-glycans that were decreased in the insulin-treated db/db mice were SiaGalGlcNAcMan3GlcNAc2 (430010), SiaGalGlcNAcMan4GlcNAc2 (530010), and SiaGalGlcNAcMan5GlcNAc2 (630010), wherein Sia is Neu5Ac or Neu5Gc.
The objective of this study was to evaluate the performance of candidate biomarkers discovered using rosiglitazone in mice treated with a diabetes drug with a different mechanism of action. The 16 candidate markers that were identified in Example 1 were evaluated in db/db mice treated with insulin detemir and vehicle.
In this Example, plasma samples were analyzed from ten db/db mice at baseline (0 days), and 20 db/db mice (ten vehicle and ten insulin detemir) at 7, 14, and 21 days. Sample preparation and analysis followed the protocol described in Example 1.
Data Analysis: For this study, the analysis was extended to evaluate changes in all detected N-glycans in order to reveal any novel N-glycan changes that might be specific to insulin detemir. The extended analysis was not performed in Study 2, which included only baseline and Day 7 time points since N-glycan changes at Day 7 could not be evaluated to determine if they are sustained over time. Drug-treated and vehicle-treated db/db mice were compared across each time point using the Student's t-test. To evaluate time-dependent changes, each time point within a treatment group was compared to its corresponding Day 0 group. N-glycans which yielded p-values <0.05 in this analysis were considered significant.
The concentrations of individual N-glycans in insulin detemir- and vehicle-treated db/db mice were compared at each time point using the Student's t-test. […] Time-dependence was also evaluated for each of the candidate markers by comparing each time point to baseline.

[3] = serum samples, vs non-treated controls

Compound: CN(CCOc1ccc(CC2SC(=O)NC2=O)cc1)c1ccccn1 (stereo not drawn) [rosiglitazone]
- Time at which highly significant (p<0.001) change in HbA1c was achieved [1]: 21 days

Compound: insulin detemir
- Change in O-acetylated N-glycans [2, 3]: No change
- Change in fucosylated N-glycans [2, 3]: No change
- Change in tetraantennary N-glycans [2, 3]: No change
- Direction of Change, High Mannose glycan 520000 (Man5GlcNAc2) [2]: decreased; also recorded: lower
- Direction of Change, High Mannose glycan 620000 (Man6GlcNAc2) [2]: decreased; also recorded: lower
- Direction of Change, High Mannose glycan 720000 (Man7GlcNAc2) [2]: decreased; also recorded: lower
- Direction of Change, High Mannose glycan 820000 (Man8GlcNAc2) [2]: decreased; also recorded: lower
- Direction of Change, Hybrid glycan 430010 [2]: decreases; also recorded: lower
- Direction of Change, Hybrid glycan 530010 [2]: decreases; also recorded: lower
- Direction of Change, Hybrid glycan 630010 [2]: decreases; also recorded: lower
- Direction of Change, High Mannose glycan 520000 (Man5GlcNAc2) ([2]; listed as Insulin Detemir): Decreased
- Direction of Change, High Mannose glycan 620000 (Man6GlcNAc2) ([2]; listed as Insulin Detemir): Decreased
- Direction of Change, High Mannose glycan 720000 (Man7GlcNAc2) ([2]; listed as Insulin Detemir): Decreased
- Direction of Change, High Mannose glycan 820000 (Man8GlcNAc2) ([2]; listed as Insulin Detemir): Decreased
- Direction of Change, Hybrid glycan 430010 ([2]; listed as Insulin Detemir): Decreased
- Direction of Change, Hybrid glycan 530010 ([2]; listed as Insulin Detemir): Decreased
- Direction of Change, Hybrid glycan 630010 ([2]; listed as Insulin Detemir): Decreased
